Read-outs that look alike come from different tables or passages of the source.
System: S. aureus clinical isolates
Assay: microbe, parasite or virus in culture
Type: cell-based

Measured: MIC

CC(=O)NC[C@H]1CN(c2ccc(N3CCOCC3)c(F)c2)C(=O)O1 [Linezolid]
4 mg/L: S. aureus ATCC 29213, MSSA / VSSA, test date 2018-10-25 (three repeat lines) | Staphylococcus aureus, MRSA / USA100 / VRSA, S. aureus IHMA 1308256, VRS10, MRSA / VRSA, USA100, read-out: MIC | Staphylococcus aureus, MRSA, S. aureus IHMA 1569509, MRSA / VSSA, read-out: MIC | Staphylococcus aureus, MRSA, S. aureus IHMA 1575629, MRSA / VSSA, read-out: MIC | Staphylococcus aureus, MRSA, S. aureus IHMA 1584223, MRSA / VSSA, read-out: MIC | Staphylococcus aureus, MRSA, S. aureus IHMA 1591462, MRSA / VSSA, read-out: MIC | Staphylococcus aureus, MRSA, S. aureus IHMA 1602095, MRSA / VSSA, read-out: MIC | Staphylococcus aureus, MRSA, S. aureus IHMA 1611612, MRSA / VSSA, read-out: MIC
1 mg/L: Staphylococcus aureus, MRSA / NRS 3 / VISA, S. aureus IHMA 1308243, NRS3, MRSA / VISA, read-out: MIC | Staphylococcus aureus, MRSA / NRS 4 / VISA, S. aureus IHMA 649380, NRS4, MRSA / VISA, read-out: MIC | Staphylococcus aureus, MRSA / NRS 21 / VISA, S. aureus IHMA 649388, NRS21, MRSA / VISA, read-out: MIC | Staphylococcus aureus, MRSA / NRS 22 / USA600 / VISA, S. aureus IHMA 649389, NRS22, MRSA / VISA, USA600, read-out: MIC | Staphylococcus aureus, MRSA / NRS 24 / VISA, S. aureus IHMA 649391, NRS24, MRSA / VISA, read-out: MIC | Staphylococcus aureus, MRSA / NRS 26, S. aureus IHMA 649392, NRS26, MRSA / VSSA, read-out: MIC | Staphylococcus aureus, MRSA / NRS 29 / VISA, S. aureus IHMA 1308250, NRS29, MRSA / VISA, read-out: MIC | Staphylococcus aureus, MRSA / NRS 37 / VISA, S. aureus IHMA 1308251, NRS37, MRSA / VISA, read-out: MIC | Staphylococcus aureus, MRSA / NRS 54, S. aureus IHMA 1308253, NRS54, MRSA / VSSA* (*Expected VAN intermediate, confirmed VAN susceptible twice), test date 2018-11-07, read-out: MIC | Staphylococcus aureus, MRSA / NRS 56 / VISA, S. aureus IHMA 1308254, NRS56, MRSA / VISA, read-out: MIC | Staphylococcus aureus, MRSA / USA100 / VRSA, S. aureus IHMA 672230, VRS1, MRSA / VRSA, USA100, read-out: MIC | Staphylococcus aureus, MRSA / USA100 / VRSA, S. aureus IHMA 672231, VRS2, MRSA / VRSA, USA100, read-out: MIC | Staphylococcus aureus, MRSA / USA100 / VRSA, S. aureus IHMA 672238, VRS8, MRSA / VRSA, USA100, read-out: MIC | Staphylococcus aureus, MRSA / USA100 / VRSA, S. aureus IHMA 672239, VRS9, MRSA / VRSA, USA100, read-out: MIC | Staphylococcus aureus, MRSA / USA100 / VRSA, S. aureus IHMA 1308258, VRS11b, MRSA / VRSA, USA100, read-out: MIC | Staphylococcus aureus, MRSA / USA800 / VRSA, S. aureus IHMA 672233, VRS3b, MRSA / VRSA, USA800, read-out: MIC | Staphylococcus aureus, MRSA, S. aureus IHMA 1583795, MRSA / VSSA, read-out: MIC | Staphylococcus aureus, MRSA, S. aureus IHMA 1586780, MRSA / VSSA, read-out: MIC | Staphylococcus aureus, MRSA, S. aureus IHMA 1588127, MRSA / VSSA, read-out: MIC | Staphylococcus aureus, MRSA, S. aureus IHMA 1597106, MRSA / VSSA, read-out: MIC | Staphylococcus aureus, MRSA, S. aureus IHMA 1620441, MRSA / VSSA, read-out: MIC
2 mg/L: Staphylococcus aureus, ATCC 29213 / MSSA, S. aureus ATCC 29213, MSSA / VSSA, test date 2018-10-25 (three repeat lines), read-out: MIC | Staphylococcus aureus, ATCC 29213 / MSSA, S. aureus ATCC 29213, MSSA / VSSA, test date 2018-11-07, read-out: MIC | Staphylococcus aureus, MRSA / NRS 18 / VISA, S. aureus IHMA 649386, NRS18, MRSA / VISA, read-out: MIC | Staphylococcus aureus, MRSA / NRS 23 / VISA, S. aureus IHMA 649390, NRS23, MRSA / VISA, read-out: MIC | Staphylococcus aureus, MRSA / NRS 27 / VISA, S. aureus IHMA 1308248, NRS27, MRSA / VISA, read-out: MIC | Staphylococcus aureus, MRSA / USA100 / VRSA, S. aureus IHMA 672234, VRS4, MRSA / VRSA, USA100, read-out: MIC | Staphylococcus aureus, MRSA / USA100 / VRSA, S. aureus IHMA 672235, VRS5, MRSA / VRSA, USA100, read-out: MIC | Staphylococcus aureus, MRSA / USA100 / VRSA, S. aureus IHMA 672237, VRS7, MRSA / VRSA, USA100, read-out: MIC | Staphylococcus aureus, MRSA, S. aureus IHMA 1575268, MRSA / VSSA, read-out: MIC | Staphylococcus aureus, MRSA, S. aureus IHMA 1577820, MRSA / VSSA, read-out: MIC | Staphylococcus aureus, MRSA, S. aureus IHMA 1580940, MRSA / VSSA, read-out: MIC | Staphylococcus aureus, MRSA, S. aureus IHMA 1582100, MRSA / VSSA, read-out: MIC | Staphylococcus aureus, MRSA, S. aureus IHMA 1585316, MRSA / VSSA, read-out: MIC | Staphylococcus aureus, MRSA, S. aureus IHMA 1587322, MRSA / VSSA, read-out: MIC | Staphylococcus aureus, MRSA, S. aureus IHMA 1592755, MRSA / VSSA, read-out: MIC | Staphylococcus aureus, MRSA, S. aureus IHMA 1592776, MRSA / VSSA, read-out: MIC | Staphylococcus aureus, MRSA, S. aureus IHMA 1611170, MRSA / VSSA, read-out: MIC | Staphylococcus aureus, MRSA, S. aureus IHMA 1612228, MRSA / VSSA, read-out: MIC
0.5 mg/L: Staphylococcus aureus, MRSA / NRS 19 / VISA, S. aureus IHMA 649387, NRS19, MRSA / VISA, read-out: MIC | Staphylococcus aureus, MRSA, S. aureus IHMA 1580300, MRSA / VSSA, read-out: MIC
